By IC50 is commonly meant the midpoint of a concentration-inhibition curve.

The values below come from ChEMBL document CHEMBL5029193, “Design of Coibamide A Mimetics with Improved Cellular Bioactivity” (ACS Med Chem Lett, 2022).

Where a SMILES comes first, the peptide text is derived from it. Bridges are numbered along the chain shown (N, C = ends). [ ]: non-standard residue; d: D form. The star is where a group is joined. Bip = N[C@@H](Cc1ccc(-c2ccccc2)cc1)C(=O)O; dNMeaIle = CC[C@H](C)[C@@H](NC)C(=O)O; NMe2Val = CC(C)[C@@H](C(=O)*)N(C)C; NMeLys(Me) = CNCCCC[C@H](NC)C(=O)O; NMeI = CC[C@H](C)[C@H](NC)C(=O)O; NMeT = CN[C@H](C(=O)O)[C@@H](C)O; 2Pal = N[C@@H](Cc1ccccn1)C(=O)O; 3Pal = N[C@@H](Cc1cccnc1)C(=O)O; 4Pal = N[C@@H](Cc1ccncc1)C(=O)O; NMeL = CN[C@@H](CC(C)C)C(=O)O; NMeOrn = CN[C@@H](CCCN)C(=O)O; dNMeOrn = CN[C@H](CCCN)C(=O)O; dHiv = CC(C)[C@@H](O)C(=O)O; NMeS = CN[C@@H](CO)C(=O)O; NMeA = CN[C@@H](C)C(=O)O; dNMeA = CN[C@H](C)C(=O)O Bounds are passed on as bounds.

In this test the test system is A549. The test can be described thus: Cytotoxicity against human A549 cells assessed as cell growth inhibition incubated for 72 hrs by MTS assay. Type of test: functional, cell-based. Particulars: A549, 72 h.
Take `CC[C@H](C)[C@H]1C(=O)N[C@@H](C)C(=O)N(C)[C@@H](CC(C)C)C(=O)N[C@@H](Cc2ccc(OC)cc2)C(=O)N(C)CCCC[C@H](N(C)C(=O)[C@H](CC(C)C)NC(=O)[C@H](C)N(C)C(=O)[C@H](OC(=O)[C@H](C(C)C)N(C)C)C(C)C)C(=O)N(C)[C@@H](C)C(=O)N1C` (NMe2Val-[dHiv][NMeA]L[NMeLys(Me)][NMeA][NMeI]A[NMeL]Y(Me); lactam 4-C): the IC50 is 3.4 µM. Next, `CC[C@H](C)[C@@H]1NC(=O)[C@H](C)N(C)C(=O)[C@@H](N(C)C(=O)[C@H](CC(C)C)N(C)C(=O)[C@H](C)N(C)C(=O)[C@H](OC(=O)[C@H](C(C)C)N(C)C)C(C)C)CCCCN(C)C(=O)[C@H](Cc2ccc(OC)cc2)NC(=O)[C@H](CC(C)C)N(C)C(=O)[C@H](C)NC1=O` (NMe2Val-[dHiv][NMeA][NMeL][NMeLys(Me)][NMeA]IA[NMeL]Y(Me); lactam 4-C): > 10 µM. The same measure for `CC[C@H](C)[C@H]1C(=O)N[C@@H](C)C(=O)N(C)[C@@H](CC(C)C)C(=O)N[C@@H](Cc2ccccn2)C(=O)N(C)CCCC[C@H](N(C)C(=O)[C@H](CC(C)C)N(C)C(=O)[C@H](C)N(C)C(=O)[C@H](OC(=O)[C@H](C(C)C)N(C)C)C(C)C)C(=O)N(C)[C@@H](C)C(=O)N1C` (NMe2Val-[dHiv][NMeA][NMeL][NMeLys(Me)][NMeA][NMeI]A[NMeL][2Pal]; lactam 4-C): > 10 µM; for `CC[C@H](C)[C@H]1C(=O)N[C@@H](C)C(=O)N(C)[C@@H](CC(C)C)C(=O)N[C@@H](Cc2cccnc2)C(=O)N(C)CCCC[C@H](N(C)C(=O)[C@H](CC(C)C)N(C)C(=O)[C@H](C)N(C)C(=O)[C@H](OC(=O)[C@H](C(C)C)N(C)C)C(C)C)C(=O)N(C)[C@@H](C)C(=O)N1C` (NMe2Val-[dHiv][NMeA][NMeL][NMeLys(Me)][NMeA][NMeI]A[NMeL][3Pal]; lactam 4-C): > 10 µM. With `CC[C@H](C)[C@H]1C(=O)N[C@@H](C)C(=O)N(C)[C@@H](CC(C)C)C(=O)N[C@@H](Cc2ccncc2)C(=O)N(C)CCCC[C@H](N(C)C(=O)[C@H](CC(C)C)N(C)C(=O)[C@H](C)N(C)C(=O)[C@H](OC(=O)[C@H](C(C)C)N(C)C)C(C)C)C(=O)N(C)[C@@H](C)C(=O)N1C` (NMe2Val-[dHiv][NMeA][NMeL][NMeLys(Me)][NMeA][NMeI]A[NMeL][4Pal]; lactam 4-C), the 50% inhibitory concentration (IC50) is > 10 µM. Next, `CC[C@H](C)[C@H]1C(=O)N[C@@H](C)C(=O)N(C)[C@@H](CC(C)C)C(=O)N[C@H](Cc2ccc(OC)cc2)C(=O)N(C)CCCC[C@H](N(C)C(=O)[C@H](CC(C)C)N(C)C(=O)[C@H](C)N(C)C(=O)[C@H](OC(=O)[C@H](C(C)C)N(C)C)C(C)C)C(=O)N(C)[C@@H](C)C(=O)N1C` (NMe2Val-[dHiv][NMeA][NMeL][NMeLys(Me)][NMeA][NMeI]A[NMeL][dY](Me); lactam 4-C): > 10 µM. The same measure for `CC[C@H](C)[C@H]1C(=O)N[C@H](C)C(=O)N(C)[C@@H](CC(C)C)C(=O)N[C@@H](Cc2ccc(OC)cc2)C(=O)N(C)CCCC[C@H](N(C)C(=O)[C@H](CC(C)C)N(C)C(=O)[C@H](C)N(C)C(=O)[C@H](OC(=O)[C@H](C(C)C)N(C)C)C(C)C)C(=O)N(C)[C@@H](C)C(=O)N1C` (NMe2Val-[dHiv][NMeA][NMeL][NMeLys(Me)][NMeA][NMeI][dA][NMeL]Y(Me); lactam 4-C): > 10 µM.

With `CC[C@H](C)[C@@H]1C(=O)N[C@@H](C)C(=O)N(C)[C@@H](CC(C)C)C(=O)N[C@@H](Cc2ccc(OC)cc2)C(=O)N(C)CCCC[C@H](N(C)C(=O)[C@H](CC(C)C)N(C)C(=O)[C@H](C)N(C)C(=O)[C@H](OC(=O)[C@H](C(C)C)N(C)C)C(C)C)C(=O)N(C)[C@@H](C)C(=O)N1C` (NMe2Val-[dHiv][NMeA][NMeL][NMeLys(Me)][NMeA][dNMeaIle]A[NMeL]Y(Me); lactam 4-C), the IC50 was > 10 µM. For the compound `CC[C@H](C)[C@H]1C(=O)N[C@@H](C)C(=O)N(C)[C@@H](CC(C)C)C(=O)N[C@@H](Cc2ccc(OC)cc2)C(=O)N(C)CCCC[C@H](N(C)C(=O)[C@H](CC(C)C)N(C)C(=O)[C@H](C)N(C)C(=O)[C@H](OC(=O)[C@H](C(C)C)N(C)C)C(C)C)C(=O)N(C)[C@H](C)C(=O)N1C` (NMe2Val-[dHiv][NMeA][NMeL][NMeLys(Me)][dNMeA][NMeI]A[NMeL]Y(Me); lactam 4-C), the IC50 is > 10 µM. `CC[C@H](C)[C@H]1C(=O)N[C@@H](C)C(=O)N(C)[C@@H](CC(C)C)C(=O)N[C@@H](Cc2ccc(OC)cc2)C(=O)NCCC[C@H](N(C)C(=O)[C@H](CC(C)C)N(C)C(=O)[C@H](C)N(C)C(=O)[C@H](OC(=O)[C@H](C(C)C)N(C)C)C(C)C)C(=O)N(C)[C@@H](C)C(=O)N1C` (NMe2Val-[dHiv][NMeA][NMeL][NMeOrn][NMeA][NMeI]A[NMeL]Y(Me); lactam 4-C): the half-maximal inhibitory concentration (IC50) is > 10 µM. Next, `CC[C@H](C)[C@H]1C(=O)N[C@@H](C)C(=O)N(C)[C@@H](CC(C)C)C(=O)N[C@@H](Cc2ccc(OC)cc2)C(=O)NCCC[C@@H](N(C)C(=O)[C@H](CC(C)C)N(C)C(=O)[C@H](C)N(C)C(=O)[C@H](OC(=O)[C@H](C(C)C)N(C)C)C(C)C)C(=O)N(C)[C@@H](C)C(=O)N1C` (NMe2Val-[dHiv][NMeA][NMeL][dNMeOrn][NMeA][NMeI]A[NMeL]Y(Me); lactam 4-C): > 10 µM; `CC[C@H](C)[C@H]1C(=O)N[C@@H](C)C(=O)N(C)[C@@H](CC(C)C)C(=O)N[C@@H](Cc2ccc(-c3ccccc3)cc2)C(=O)N(C)[C@H](C)C(=O)O[C@H](C)[C@H](N(C)C(=O)[C@H](CC(C)C)N(C)C(=O)[C@H](COC)N(C)C(=O)[C@H](OC(=O)[C@H](C(C)C)N(C)C)C(C)C)C(=O)N(C)[C@@H](COC)C(=O)N1C` (NMe2Val-[dHiv][NMeS](Me)[NMeL][NMeT][NMeS](Me)[NMeI]A[NMeL][Bip][dNMeA]; ester 4-C): 0.00011 µM.
